In the assay the target is T1, SIRT2 (Homo sapiens, UniProt Q8IXJ6).
T1 construct: recombinant active enzymes SIRT1, SIRT2, and the catalytically active fragment of SIRT3
T1 sequence (Q8IXJ6 1-389): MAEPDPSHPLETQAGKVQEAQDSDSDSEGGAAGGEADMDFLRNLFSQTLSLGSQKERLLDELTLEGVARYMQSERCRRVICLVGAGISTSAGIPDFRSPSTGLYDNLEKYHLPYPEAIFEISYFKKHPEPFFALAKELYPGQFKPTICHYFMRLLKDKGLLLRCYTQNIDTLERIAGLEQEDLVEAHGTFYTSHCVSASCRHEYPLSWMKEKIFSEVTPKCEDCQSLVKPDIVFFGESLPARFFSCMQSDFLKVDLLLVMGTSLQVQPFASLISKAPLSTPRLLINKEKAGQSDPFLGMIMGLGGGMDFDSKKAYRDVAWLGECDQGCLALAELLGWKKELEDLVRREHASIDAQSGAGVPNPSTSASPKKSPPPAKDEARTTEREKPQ
The experiment in a line: Fluor-de-Lys biochemical sirtuin deacetylation assay, SIRT2. The following applies: for SIRT2 inhibition potency compared with AK-1: dose-response, five doses, side-by-side with AK-1.

Where [1] appears, read: sulfone, sulfoxide, thioether derivatives of C2-8 scaffold.

Counter-ions that a name gives are not always drawn.

For `CN(c1ccc(Cl)cc1)S(=O)(=O)c1cccc(C(=O)NCc2ccccn2)c1` [Compound 53, 3-(N-(4-chlorophenyl)-N-methylsulfamoyl)-N-(pyridin-2-ylmethyl)benzamide], the “% of SIRT2 Inhibition at 10 μM” value (C2-8 derivatives) was 0%.
As for `CN(c1ccc(Cl)cc1)S(=O)(=O)c1cccc(C(=O)NCc2ccccn2)c1` [Compound 62, 3-(N-(4-chlorophenyl)-N-methylsulfamoyl)-N-(pyridin-2-ylmethyl)benzamide], under “C2-8 derivatives”, the “% of SIRT2 Inhibition at 10 μM” value is reported as 3%.
On to `CN(c1ccc(Br)cc1)S(=O)(=O)c1cccc(C(=O)Nc2ccc(Cl)nn2)c1` [Compound 85, 3-(N-(4-bromophenyl)-N-methylsulfamoyl)-N-(6-chloropyridazin-3-yl)benzamide], for which, for the setting “C2-8 derivatives”, at 10 µM the inhibition was 16%.
Consider `CC(=O)c1ccc(NC(=O)c2cccc(S(=O)(=O)N(C)c3ccc(C(C)=O)cc3)c2)cc1` [Compound 109, N-(4-Acetylphenyl)-3-(N-(4-acetylphenyl)-N-methylsulfamoyl)benzamide], for which the “SIRT2 inhibition potency compared with AK-1” value is given as “equal or just slightly better potency”.
For `CN(c1ccc(S(C)(=O)=O)cc1)S(=O)(=O)c1cccc(C(=O)Nc2ccc(Cl)cc2)c1` [Compound 117, N-(4-Chlorophenyl)-3-(N-methyl-N-(4-(methylsulfonyl)phenyl)sulfamoyl)benzamide], the “SIRT2 inhibition potency compared with AK-1” value is given as “equal or just slightly better potency”.
Consider `C[S+]([O-])c1cccc(NC(=O)c2cccc(S(=O)(=O)N3CCCCCC3)c2)c1` (stereo not shown) [Compound 138, 3-(azepan-1-ylsulfonyl)-N-(3-(methylsulfinyl)phenyl)benzamide], for which the “% of SIRT2 Inhibition at 10 μM” value (AK-1 derivatives) is recorded as 4%.
`C[S+]([O-])c1cccc(NC(=O)c2cccc(S(=O)(=O)N3CCCCCC3)c2)c1` (stereo not shown) [Compound 141, 3-(azepan-1-ylsulfonyl)-N-(3-(methylsulfinyl)phenyl)benzamide]: the “% of SIRT2 Inhibition at 10 μM” value (AK-1 derivatives) was found to be 1%.
Consider `O=C(Nc1ccc(Cl)cc1)c1cccc(S(=O)(=O)Cc2ccc(Cl)cc2)c1` [Compound 171, 3-((4-chlorobenzyl)sulfonyl)-N-(4-chlorophenyl)benzamide], for which 10 µM produced 0% inhibition under setting [1].
Consider `O=C(Nc1ccc(Br)cc1)c1cccc(S(=O)(=O)Cc2ccc(Cl)cc2)c1` [Compound 172, N-(4-bromophenyl)-3-((4-chlorobenzyl)sulfonyl)benzamide], for which the inhibition (in general, the relative decrease from the control value, in per cent) at 10 µM under setting [1] is 0%.
Still for that read-out and setting: to `O=C(Nc1ccc(Cl)cn1)c1cccc(S(=O)(=O)Cc2ccc(Cl)cc2)c1` [Compound 173, 3-((4-chlorobenzyl)sulfonyl)-N-(5-chloropyridin-2-yl)benzamide] belongs 2%; to `C[S+]([O-])c1ccc(NC(=O)c2cccc(S(=O)(=O)Cc3ccc(Cl)cc3)c2)cc1` (stereo not shown) [Compound 175, 3-((4-chlorobenzyl)sulfonyl)-N-(4-(methylsulfinyl)phenyl)benzamide], 31%; to `N#Cc1ccc(NC(=O)c2cccc(S(=O)(=O)Cc3ccc(Cl)cc3)c2)nc1` [Compound 176, 3-((4-chlorobenzyl)sulfonyl)-N-(5-cyanopyridin-2-yl)benzamide], 36%.
Regarding `CS(=O)(=O)c1ccc(NC(=O)c2cccc(S(=O)(=O)Cc3ccc(Cl)cc3)c2)cc1` [Compound 177, 3-((4-chlorobenzyl)sulfonyl)-N-(4-(methylsulfonyl)phenyl)benzamide], the inhibition at 10 µM under setting [1] was determined as 17%.
As for `CC(=O)c1ccc(NC(=O)c2cccc(S(=O)(=O)Cc3ccc(Cl)cc3)c2)cc1` [Compound 178, N-(4-acetylphenyl)-3-((4-chlorobenzyl)sulfonyl)benzamide], the inhibition at 10 µM under setting [1] came out at 23%.
Still for that read-out and setting: in the case of `O=C(Nc1ccc(Cl)nn1)c1cccc(S(=O)(=O)Cc2ccc(Cl)cc2)c1` [Compound 179, 3-((4-chlorobenzyl)sulfonyl)-N-(6-chloropyridazin-3-yl)benzamide] it was 0%.
`COc1ccc(CS(=O)(=O)c2cccc(C(=O)Nc3ccc(C#N)cc3)c2)cc1` [Compound 180, N-(4-cyanophenyl)-3-((4-methoxybenzyl)sulfonyl)benzamide]: at 10 µM the inhibition under setting [1] was 50%.
In the case of `N#Cc1ccc(NC(=O)c2cccc(SCc3ccc(Cl)cc3)c2)cc1` [Compound 181, 3-((4-chlorobenzyl)thio)-N-(4-cyanophenyl)benzamide], testing at 10 µM under setting [1] gave an inhibition of 81%.
Under setting [1], `CSc1ccc(CSc2cccc(C(=O)Nc3ccc(C#N)cc3)c2)cc1` [Compound 183, N-(4-cyanophenyl)-3-((4-(methylthio)benzyl)thio)benzamide] had an inhibition at 10 µM of 83%.
Compound `N#Cc1ccc(NC(=O)c2cccc([S+]([O-])Cc3ccc(Cl)cc3)c2)cc1` (stereo not shown) [Compound 186, N-(4-cyanophenyl)-3-((4-chlorobenzyl)sulfinyl)benzamide] gave an inhibition at 10 µM under setting [1] of 47%.
In turn, `C[S+]([O-])c1ccc(NC(=O)c2cccc([S+]([O-])Cc3ccc(Cl)cc3)c2)cc1` (stereo not shown) [Compound 187, 3-((4-chlorobenzyl)sulfinyl)-N-(4-(methylsulfinyl)phenyl)benzamide] came in with an inhibition at 10 µM under setting [1] of 24%.
On to `C[S+]([O-])c1ccc(NC(=O)c2cccc(S(=O)(=O)Cc3ccc(Cl)cc3)c2)cc1` (stereo not shown) [Compound 188, 3-((4-chlorobenzyl)sulfonyl)-N-(4-(methylsulfinyl)phenyl)benzamide], for which the “% of SIRT2 Inhibition at 10 μM” value under setting [1] is 18%.
`COc1ccc(C[S+]([O-])c2cccc(C(=O)Nc3ccc(C#N)cc3)c2)cc1` (stereo not shown) [Compound 189, N-(4-cyanophenyl)-3-((4-methoxybenzyl)sulfinyl)benzamide] registered an inhibition at 10 µM under setting [1] of 21%.
For the compound `CN(c1ccc(Cl)cc1)S(=O)(=O)c1cccc(C(=O)Nc2ccc(CN)cc2)c1` [Compound 203Aa, N-(4-(aminomethyl)phenyl)-3-(N-(4-chlorophenyl)-N-methylsulfamoyl)benzamide], at 10 µM the inhibition was 15%.
Compound `CN(c1ccc([S+](C)[O-])cc1)S(=O)(=O)c1cccc(C(=O)Nc2ccc(Cl)cc2F)c1` (stereo not shown) [Compound 203Ad, N-(4-chloro-2-fluorophenyl)-3-(N-methyl-N-(4-(methylsulfinyl)phenyl)sulfamoyl)-benzamide] returned an inhibition at 10 µM of 0%.
`CN(C(=O)c1ccnc(S(=O)(=O)N(C)c2ccc(Cl)cc2)c1)c1ccc(S(C)(=O)=O)cc1` [Compound 203Ao, 2-(N-(4-chlorophenyl)-N-methylsulfamoyl)-N-methyl-N-(4-(methylsulfonyl)phenyl)-isonicotinamide] showed an inhibition at 10 µM of 0%.
In turn, `C[C@@H](N)c1ccc(N(C)S(=O)(=O)c2cccc(C(=O)Nc3ccc(C#N)cc3)c2)cc1` [Compound 203At, (R)-3-(N-(4-(1-aminoethyl)phenyl)-N-methylsulfamoyl)-N-(4-cyanophenyl)-benzamide hydrochloride] registered an inhibition at 10 µM of 38%.
`C[C@H](N)c1ccc(N(C)S(=O)(=O)c2cccc(C(=O)Nc3ccc(C#N)cc3)c2)cc1` [Compound 203Au, (S)-3-(N-(4-(1-aminoethyl)phenyl)-N-methylsulfamoyl)-N-(4-cyanophenyl) benzamide hydrochloride]: the inhibition at 10 µM turned out to be 39%.
Compound `CN(c1ccc(O)cc1)S(=O)(=O)c1cccc(C(=O)Nc2ccc(C#N)cc2)c1` [Compound 203Ax, N-(4-cyanophenyl)-3-(N-(4-hydroxyphenyl)-N-methylsulfamoyl)benzamide] yielded an inhibition at 10 µM of 51%.
`Cc1cc(Br)ccc1NC(=O)c1cccc(S(=O)(=O)N(C)c2ccc(Br)cc2)c1` [Compound 203e, N-(4-bromo-2-methylphenyl)-3-(N-(4-bromophenyl)-N-methylsulfamoyl)benzamide] came in with an inhibition at 10 µM of 0%.
Compound `Nc1cccc(NC(=O)c2cccc(S(=O)(=O)N3CCCCCC3)c2)c1` [Compound 203i, N-(3-aminophenyl)-3-(azepan-1-ylsulfonyl)benzamide] gave an inhibition at 10 µM of 43%.
For the compound `CN(C)c1cccc(NC(=O)c2cccc(S(=O)(=O)N3CCCCCC3)c2)c1` [Compound 203j, 3-(azepan-1-ylsulfonyl)-N-(3-(dimethylamino)phenyl)benzamide], the inhibition at 10 µM stood at 61%.
Same read-out and setting: in the case of `CN(c1ccc(Br)cc1)S(=O)(=O)c1cccc(C(=O)Nc2ccc(Br)cc2F)c1` [Compound 203r, N-(4-bromo-2-fluorophenyl)-3-(N-(4-bromophenyl)-N-methylsulfamoyl)benzamide] it was 30%; in that of `CN(C(=O)c1cccc(S(=O)(=O)N(C)c2ccc(Br)cc2)c1)c1ccc(F)cc1F` [Compound 203t, 3-(N-(4-bromophenyl)-N-methylsulfamoyl)-N-(2,4-difluorophenyl)-N-methyl-benzamide], 17%.
As for `CS(=O)(=O)c1ccc(CS(=O)(=O)c2cccc(C(=O)Nc3ccc(C#N)cc3)c2)cc1` [Compound 212a, N-(4-cyanophenyl)-3-((4-(methylsulfonyl)benzyl)sulfonyl)benzamide], 10 µM produced 19% inhibition.
Compound `C[C@@H](Oc1cccc(C(=O)Nc2ccc(C#N)cc2)c1)c1ccc(C#N)cc1` [Compound 216Ag, (R)—N-(4-cyanophenyl)-3-(1-(4-cyanophenyl)ethoxy)benzamide] yielded an inhibition at 10 µM of 92%.
For the compound `CC(Oc1cccc(C(=O)Nc2ccc(C#N)cc2)c1)c1ccc(C2COC2)cc1` (stereo not shown) [Compound 216Ah, N-(4-cyanophenyl)-3-(1-(4-(oxetan-3-yl)phenyl)ethoxy)benzamide], 10 µM produced 41% inhibition.
`CC(=O)c1ccc(C(C)(C)Oc2cccc(C(=O)Nc3ccc(C#N)cc3)c2)cc1` [Compound 216Ai, 3-((2-(4-acetylphenyl)propan-2-yl)oxy)-N-(4-cyanophenyl)benzamide] had an inhibition at 10 µM of 80%.
